# Values quoted from earlier work in paper PMC8696521 (RSC Advances, 2021).
# Read-outs that look alike come from different tables or passages of the source.
# Legend:
# [1] = test system: ACE; settings: for Category of ACEI peptide by interaction with ACE: reduced IC50 values following incubation with ACE
# [2] = peptide from P. fucata muscle
substance,measurement,setting,value
VVSLSIPR,ACE inhibition pattern,[1],competitive inhibitors
IKPVQ,Category of ACEI peptide by interaction with ACE,[1],pro-drug substrates
FHAPWK,ACE inhibition pattern,[1],competitive inhibitors
LIVT,IC50,[1]; read-out: ACEI IC50,110 nM
GAGLPGKRER,Antioxidant activity,[2],strong antioxidant activity
IKPVA,Category of ACEI peptide by interaction with ACE,[1],pro-drug substrates
GVGSPY,ACEI IC50,[1]; from pearl oyster shell protein hydrolysate,5.82 µg/mL
WVYY,ACE inhibition pattern,[1]; hemp seed protein hydrolysate peptides,mixed-mode type of ACE inhibition
LSGYGP,ACE inhibition pattern,[1],noncompetitive
